From patent US5086071A, “2,5,6,7-tetranor-4,8-inter-m-phenylene PGI2 derivatives” (Toray Industries, Inc., priority 1989, dated 1992)
Converted amounts (≈) assume the structure as drawn.

Tests used:
stomach = experiment: Gastric Cytoprotection (0.2N NaOH-induced stomach lesion, ulcer index); type: in vivo; settings: test compound 30 minutes before oral 0.2N NaOH; killed one hour later; read-out: ED50 (dose which reduces an ulcer index by 50% of that in a control animal)
Description: Gastric cytoprotection was measured according to the method of A. Robert, et al. (Gastroenterlogy 77 (3), 443 (1979).
Thirty minutes later after the test compound was administered, the animals were given orally 0.2N NaOH and killed one hour later by chloroform anesthesia.
The stomach was taken out, fixed with 5% formalin solution, and opened along greater curvature.
The length of the lesion brought about in the stomach is measured and expressed in terms of the ulcer index. Gastric cytoprotection activity is expressed in Table 1 below as an ED50 value (dose in μg/Kg which reduces an ulcer index by 50% of that in a control animal (ulcer index: 100%)).

platelet aggregation = experiment: Inhibiting Effect of Platelet Aggregation (ADP-induced, human platelet rich plasma); type: cell-based; settings: human PRP, ADP 10 μM, test compound added one minute prior to ADP, read-out: ED50 (text: IC50), inhibition of platelet aggregation
Description: Blood collected from human intermediate cubital vein was centrifuged at 800 rpm for 10 minutes. The supernatant was taken out as platelet rich plasma (PRP). Aliquots of PRP were dispensed into test tubes to which […] (ADP) was added (final concentration: 10 μM) to induce platelet aggregation. The extent of platelet aggregation is determined by an aggregometer (Rika Denki, Tokyo) as a change of turbidity. The test compound is added in one minute prior to the addition pf ADP. IC50 values are calculated as a concentration of test compound which inhibits platelet aggregation by 50%.

gastric acid secretion = experiment: Gastric Acid Secretion Inhibition (pentagastrin-stimulated, perfused stomach); type: in vivo, rat (male SD rats); settings: intravenous; pentagastrin 0.05 μg/Kg/min; relative to PGE2 set as 1
Description: Male SD rats were operated by means of ventrotomy under urethane anesthesia. A double cannula was inserted into the fundus of the rat. The stomach lumen was continuously perfused with a physiological saline solution. The perfusate was drawn into the pH meter to continuously measure its pH (M. Ghosh, H. Schild, Br. J. Pharmacol. 13, 54 (1958)).
Pentagastrin was infused continuously at a rate of 0.05 μg/Kg/min. to stimulate gastric acid secretion.
The test compounds were injected intravenuously into the femoral vein when the pH reached a steady state at about 4.0.
Gastric acid secretion inhibition activity is calculated from the area made by pH augmentation against time.
The potency of the compounds is compared and expressed in terms of PGE2 ratio where PGE2 is set as 1.

[1] = neutral aqueous solution; cited from earlier work
[2] = cited from earlier work

| SMILES | ED50 (stomach) [µg/kg] | IC50 (platelet aggregation) [ng/mL] | Gastric Antisecretory Activity, Relative Potency Ratio [PGE2 = 1.0] (gastric acid secretion) | stability [1] | duration of physiological activities in vivo [2] | metabolism in vivo [2] |
| --- | --- | --- | --- | --- | --- | --- |
| CCCCC[C@H](O)/C=C/[C@@H]1[C@H]2c3cccc(/C=C/C(=O)O)c3O[C@H]2C[C@H]1O [Compound 24, d-(3E)-2,5,6,7-tetranor-3,4-didehydro-4,8-inter-m-phenylene PGI2] | 21.4 | 0.4 (≈ 1.07 nM) | 23 |  |  |  |
| CCCCC(C)[C@H](O)/C=C/[C@@H]1[C@H]2c3cccc(/C=C/C(=O)O)c3O[C@H]2C[C@H]1O (stereo partly drawn) [Compound 28, d-(3E)-16-methyl-2,5,6,7-tetranor-3,4-didehydro-4,8-inter-m-phenylene PGI2] | 0.26 | 1.6 (≈ 4.14 nM) | 55 |  |  |  |
| CCCC[C@H](C)C[C@H](O)/C=C/[C@@H]1[C@H]2c3cccc(/C=C/C(=O)O)c3O[C@H]2C[C@H]1O [Compound 31, d-(3E, 17S)-17-methyl-20a-homo-2,5,6,7-tetranor-3,4-didehydro-4,8-inter-m-phenylene PGI2] |  | 0.14 (≈ 0.35 nM) |  |  |  |  |
| CCCCC(C)(C)[C@H](O)/C=C/[C@@H]1[C@H]2c3cccc(/C=C/C(=O)O)c3O[C@H]2C[C@H]1O [Compound 34, d-(3E)-16,16-dimethyl-2,5,6,7-tetranor-3,4-didehydro-4,8-inter-m-phenylene PGI2] | 1.6 | 45 (≈ 112 nM) | 36 |  |  |  |
| O=C(O)/C=C/c1cccc2c1O[C@H]1C[C@@H](O)[C@H](/C=C/[C@@H](O)c3ccccc3)[C@@H]21 [Compound 37, d-(3E)-15-phenyl-2,5,6,7,16,17,18,19,20-nonanor-3,4-didehydro-4,8-inter-m-phenylene PGI2] | 0.83 | 0.56 (≈ 1.48 nM) | 83 |  |  |  |
| O=C(O)/C=C/c1cccc2c1O[C@H]1C[C@@H](O)[C@H](/C=C/[C@@H](O)c3ccc(Cl)cc3)[C@@H]21 [Compound 40, d-(3E)-15-(p-chlorophenyl)-2,5,6,7,16,17,18,19,20-nonanor-3,4-didehydro-4,8-inter-m-phenylene PGI2] | 0.46 |  |  |  |  |  |
| O=C(O)/C=C/c1cccc2c1O[C@H]1C[C@@H](O)[C@H](/C=C/[C@@H](O)c3cccc(F)c3)[C@@H]21 [Compound 43, d-(3E)-15-(m-fluorophenyl)-2,5,6,7,16,17,18,19,20-nonanor-3,4-didehydro-4,8-inter-m-phenylene PGI2] | 0.39 |  |  |  |  |  |
| CC(C)(c1ccccc1)[C@H](O)/C=C/[C@@H]1[C@H]2c3cccc(/C=C/C(=O)O)c3O[C@H]2C[C@H]1O [Compound 51, d-(3E)-16-methyl-16-phenyl-2,5,6,7,18,19,20-heptanor-3,4-didehydro-4,8-inter-m-phenylene PGI2] |  | 1800 (≈ 4280 nM) |  |  |  |  |
| O=C(O)/C=C/c1cccc2c1O[C@H]1C[C@@H](O)[C@H](/C=C/[C@@H](O)C3CCCC3)[C@@H]21 [Compound 57, d-(3E)-15-cyclopentyl-2,5,6,7,16,17,18,19,20-nonanor-3,4-didehydro-4,8-inter-m-phenylene PGI2] | 5.07 |  |  |  |  |  |
| O=C(O)/C=C/c1cccc2c1O[C@H]1C[C@@H](O)[C@H](/C=C/[C@@H](O)C3CCCCC3)[C@@H]21 [Compound 60, d-(3E)-15-cyclohexyl-2,5,6,7,16,17,18,19,20-nonanor-3,4-didehydro-4,8-inter-m-phenylene PGI2] | 0.88 | 0.35 (≈ 0.91 nM) | 14 |  |  |  |
| CCCOC[C@H](O)/C=C/[C@@H]1[C@H]2c3cccc(/C=C/C(=O)O)c3O[C@H]2C[C@H]1O [Compound 69, d-(3E)-2,5,6,7-tetranor-17-oxa-3,4-didehydro-4,8-inter-m-phenylene PGI2] | 6.5 | 0.58 (≈ 1.55 nM) | 10 |  |  |  |
| CCOCC(C)(C)[C@H](O)/C=C/[C@@H]1[C@H]2c3cccc(/C=C/C(=O)O)c3O[C@H]2C[C@H]1O [Compound 72, d-(3E)-16,16-dimethyl-2,5,6,7-tetranor-18-oxa-3,4-didehydro-4,8-inter-m-phenylene PGI2] | 2.7 | 100 (≈ 248 nM) | 9 |  |  |  |
| O=C(O)/C=C/c1cccc2c1O[C@H]1C[C@@H](O)[C@H](/C=C/[C@@H](O)COc3ccccc3)[C@@H]21 [Compound 75, d-(3E)-16-phenoxy-2,5,6,7,17,18,19,20-octanor-3,4-didehydro-4,8-inter-m-phenylene PGI2] | 0.89 | 29 (≈ 71 nM) | 73 |  |  |  |
| C[C@@H](Oc1ccccc1)[C@H](O)/C=C/[C@@H]1[C@H]2c3cccc(/C=C/C(=O)O)c3O[C@H]2C[C@H]1O [Compound 77, d-(3E,16R)-16-phenoxy-2,5,6,7,18,19,20-heptanor-3,4-didehydro-4,8-inter-m-phenylene PGI2] | 0.4 | 14 (≈ 33.1 nM) | 83 |  |  |  |
| CC(C)(Oc1ccccc1)[C@H](O)/C=C/[C@@H]1[C@H]2c3cccc(/C=C/C(=O)O)c3O[C@H]2C[C@H]1O [Compound 79, d-(3E)-16-methyl-16-phenoxy-2,5,6,7,18,19,20-heptanor-3,4-didehydro-4,8-inter-m-phenylene PGI2] | 0.5 |  | 112 |  |  |  |
| CCCCC[C@H](O)/C=C/[C@@H]1[C@H]2C/C(=C/CCCC(=O)O)O[C@H]2C[C@H]1O [PGI2, Prostaglandin I2] |  |  |  | extremely unstable even in neutral aqueous solution | only short duration of physiological activities in vivo | metabolized quickly in vivo |
